Data taken from patent publication US20080182859A1 (Curis, Inc., priority 2006, published 2008).

What was measured:
C57BL/6 male mice [1] = assay: DHT-induced alopecia (mouse model of male pattern baldness); format: in vivo; conditions: C57BL/6 male mice with subcutaneous DHT pellet (2.5 mg 21 day), dosed topically once, visually graded for hair regrowth
Experimental: (§1) A mouse model of male pattern baldness is used to investigate the effectiveness of the present compounds for growing hair. Agonists for the sonic hedgehog pathway that act by binding and activating Smoothened were tested in a formulation of 50:30:20 PG:EtOH:water or 5:95 DMSO:acetone vehicle. C57BL/6 male mice (48-52 days old on arrival) from Charles River Labs were used on the study. The mice were housed and cared for according to established procedures. Food and water were ad libitum. On Day 0, the mice were shaved on their lower back, an area of ˜1.5 inches x ˜2 inches with Wahl clippers using a surgical blade. On day −3, the mice were anesthetized with isoflurane, their back was rinsed with a pad of 70% ethanol, a placebo pellet or a DHT pellet (2.5 mg 21 day pellet) were implanted subcutaneously between the shoulder blades with a 10 gauge trochar. DHT pellet transplantation results in maintenance of existing hair follicles in the resting (telogen) phase. The hole was stapled with a sterile autoclip and the mice were returned to their cage after awaking. The mice were dosed topically once and visually graded daily, except weekends, for melanogenesis and hair regrowth of fur in the dosed area (Table 4).
In the absence of treatment with the present compounds, the follicles remain in telogen rather than following the normal time course of the mouse hair cycle.

C57BL/6 male mice [2] = assay: C57BL/6 hair growth after topical dosing; format: in vivo, mouse; conditions: shaved lower back, dosed topically once, visually graded for melanogenesis and hair regrowth
Experimental: as §1

Compound | Androgenetic Alopecia (C57BL/6 male mice [1]) | C57BL/6 Hair Growth (C57BL/6 male mice [2])
CN[C@H]1CC[C@H](N(Cc2cc(-c3ccccc3)ccc2OC)C(=O)c2sc3ccccc3c2Cl)CC1 | yes | yes
CN[C@H]1CC[C@H](N(Cc2cc(-c3cc(C)nc(C)c3)ccc2OC)C(=O)c2sc3ccccc3c2Cl)CC1 | yes | yes
CN[C@H]1CC[C@H](N(Cc2cc(-c3ccc(C(N)=O)cc3)ccc2OC)C(=O)c2sc3c(F)ccc(F)c3c2Cl)CC1 | yes | yes
CN[C@H]1CC[C@H](N(Cc2cc(-c3ccnc(C(=O)OC)c3)ccc2OC)C(=O)c2sc3c(F)ccc(F)c3c2Cl)CC1 [drawing 714] | yes | yes
